# Assay results from PubChem BioAssay AID248 (DTP/NCI, 2004).
# Several values for one entry are separate records, joined by “and”; a condition that tells them apart may be missing. Identical values can stand only once. Toxic doses and inconclusive results are not listed. Peptide text beside a SMILES is read from it.
# Tested on: L1210 leukemia ip in BDF1 mice, survival T/C
# Test: NCI In Vivo Anticancer Drug Screen. Data for tumor model L1210 Leukemia (intraperitoneal) in B6D2F1 (BDF1) mice
# Conditions: endpoint: mean survival time, higher = longer survival
# Procedure, shortened: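 In this screen, tumor-bearing mice given compound are compared to those given vehicle, and their survival values are reported as a treated-to-control quotient.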
# [1] = dose: 100.0 mg/kg/injection, schedule: Q01DX001 (ip), vehicle: carboxymethylcellulose (CMC)
# [2] = dose: 200.0 mg/kg/injection, schedule: Q01DX001 (ip), vehicle: carboxymethylcellulose (CMC)
# [3] = dose: 400.0 mg/kg/injection, schedule: Q01DX001 (ip), vehicle: carboxymethylcellulose (CMC)
# [4] = dose: 100.0 mg/kg/injection, schedule: Q01DX009 (ip), vehicle: Klucel (hydroxypropylcellulose) (HPC)
# [5] = dose: 100.0 mg/kg/injection, schedule: Q04DX003 (ip), vehicle: Klucel (hydroxypropylcellulose) (HPC)
# [6] = dose: 200.0 mg/kg/injection, schedule: Q01DX009 (ip), vehicle: Klucel (hydroxypropylcellulose) (HPC)
# [7] = dose: 200.0 mg/kg/injection, schedule: Q04DX003 (ip), vehicle: Klucel (hydroxypropylcellulose) (HPC)
# [8] = dose: 400.0 mg/kg/injection, schedule: Q04DX003 (ip), vehicle: Klucel (hydroxypropylcellulose) (HPC)
# [9] = dose: 50.0 mg/kg/injection, schedule: Q01DX001 (ip), vehicle: saline
# [10] = dose: 100.0 mg/kg/injection, schedule: Q01DX001 (ip), vehicle: saline
# [11] = dose: 200.0 mg/kg/injection, schedule: Q01DX001 (ip), vehicle: saline
# [12] = dose: 100.0 mg/kg/injection, schedule: Q04DX003 (ip), vehicle: saline with Tween-80
# [13] = dose: 200.0 mg/kg/injection, schedule: Q04DX003 (ip), vehicle: saline with Tween-80
# [14] = dose: 400.0 mg/kg/injection, schedule: Q04DX003 (ip), vehicle: saline with Tween-80
# [15] = dose: 400.0 mg/kg/injection, schedule: Q01DX001 (ip), vehicle: saline
# [16] = dose: 12.5 mg/kg/injection, schedule: Q01DX009 (ip), vehicle: saline with Tween-80
# [17] = dose: 25.0 mg/kg/injection, schedule: Q01DX009 (ip), vehicle: saline with Tween-80
# [18] = dose: 50.0 mg/kg/injection, schedule: Q01DX009 (ip), vehicle: saline with Tween-80
# [19] = dose: 100.0 mg/kg/injection, schedule: Q04DX002 (ip), vehicle: Klucel (hydroxypropylcellulose) (HPC)
# [20] = dose: 200.0 mg/kg/injection, schedule: Q04DX002 (ip), vehicle: Klucel (hydroxypropylcellulose) (HPC)
# [21] = dose: 400.0 mg/kg/injection, schedule: Q04DX002 (ip), vehicle: Klucel (hydroxypropylcellulose) (HPC)
structure (smiles),measurement,setting,value
O=C1/C(=C/c2cccc3ccccc23)CCc2ccccc21,T/C,[1],97 % of control
same,T/C,[2],95 % of control
same,T/C,[3],97 % of control
O=C1C=C(c2ccccc2)C2(c3ccccc3)OC2O1 (centres undefined),T/C,[4],109 % of control
same,T/C,[5],98 % of control
same,T/C,[6],100 % of control
same,T/C,[7],98 % of control
same,T/C,"dose: 400.0 mg/kg/injection, schedule: Q01DX009 (ip), vehicle: Klucel (hydroxypropylcellulose) (HPC)",98 % of control
same,T/C,[8],98 % of control
CC1CCOS(=O)O1 (centres undefined),T/C,"dose: 20.0 mg/kg/injection, schedule: Q01DX010 (ip), vehicle: saline",96 % of control and 98 % of control
same,T/C,"dose: 24.0 mg/kg/injection, schedule: Q01DX Z (ip), vehicle: carboxymethylcellulose (CMC)",104 % of control and 92 % of control
same,T/C,"dose: 36.0 mg/kg/injection, schedule: Q01DX Z (ip), vehicle: carboxymethylcellulose (CMC)",95 % of control and 109 % of control
same,T/C,"dose: 40.0 mg/kg/injection, schedule: Q01DX010 (ip), vehicle: saline",95 % of control and 96 % of control
same,T/C,[9],98 % of control
same,T/C,"dose: 54.0 mg/kg/injection, schedule: Q01DX Z (ip), vehicle: carboxymethylcellulose (CMC)",101 % of control and 111 % of control
same,T/C,"dose: 80.0 mg/kg/injection, schedule: Q01DX010 (ip), vehicle: saline",98 % of control and 104 % of control
same,T/C,"dose: 81.0 mg/kg/injection, schedule: Q01DX Z (ip), vehicle: carboxymethylcellulose (CMC)",96 % of control and 104 % of control
same,T/C,[10],98 % of control and 102 % of control
same,T/C,[11],104 % of control
Cc1cccc(C)c1-n1c(=S)[nH]n(-c2ccccc2)c1=S,T/C,"dose: 100.0 mg/kg/injection, schedule: Q01DX009 (ip), vehicle: saline with Tween-80",91 % of control
same,T/C,[12],96 % of control
same,T/C,"dose: 200.0 mg/kg/injection, schedule: Q01DX009 (ip), vehicle: saline with Tween-80",93 % of control
same,T/C,[13],96 % of control
same,T/C,"dose: 400.0 mg/kg/injection, schedule: Q01DX009 (ip), vehicle: saline with Tween-80",94 % of control
same,T/C,[14],105 % of control
COc1ccc(CN2CCCN(Cc3ccc(OC)cc3OC)C2c2cccnc2)c(OC)c1,T/C,[9],94 % of control
same,T/C,[10],100 % of control
same,T/C,[11],103 % of control
same,T/C,[15],100 % of control
CC(O)C(NC(=O)C(N)CCCN=C(N)N)C(=O)NC(Cc1ccccc1)C(=O)O (stereo not drawn) (H-Arg-Thr-Phe-OH; configuration not given here),T/C,"dose: 18.75 mg/kg/injection, schedule: Q04DX002 (ip), vehicle: saline with Tween-80",101 % of control
same,T/C,"dose: 37.5 mg/kg/injection, schedule: Q04DX002 (ip), vehicle: saline with Tween-80",97 % of control
same,T/C,"dose: 75.0 mg/kg/injection, schedule: Q04DX002 (ip), vehicle: saline with Tween-80",93 % of control
same,T/C,"dose: 150.0 mg/kg/injection, schedule: Q04DX002 (ip), vehicle: saline with Tween-80",97 % of control
C[CH2][Sn]([c]1ccccc1)([c]1ccccc1)[c]1ccccc1,T/C,[16],97 % of control
same,T/C,[17],99 % of control
same,T/C,[18],99 % of control
CCN(CC)CCCOC(=O)c1ccc(NC(C)(C)[N+](=O)[O-])cc1,T/C,"dose: 25.0 mg/kg/injection, schedule: Q01DX009 (ip), vehicle: saline",98 % of control
same,T/C,"dose: 50.0 mg/kg/injection, schedule: Q01DX009 (ip), vehicle: saline",91 % of control
same,T/C,[10],90 % of control
NC(CSS(=O)(=O)O)=NC1CC1,T/C,[19],94 % of control
same,T/C,[20],91 % of control
same,T/C,[21],109 % of control
Nc1ccc2c(c1)C(=O)CCCC2,T/C,[1],102 % of control
same,T/C,[2],104 % of control
same,T/C,[3],98 % of control
O=[N+]([O-])c1ccc(Oc2cc(Cl)c(Cl)cc2Cl)c(Cl)c1,T/C,"dose: 75.0 mg/kg/injection, schedule: Q01DX001 (ip), vehicle: saline",87 % of control
same,T/C,"dose: 150.0 mg/kg/injection, schedule: Q01DX001 (ip), vehicle: saline",90 % of control
same,T/C,"dose: 300.0 mg/kg/injection, schedule: Q01DX001 (ip), vehicle: saline",87 % of control
S=C(Nc1ccccc1)N1CCN2CCCCC2C1 (centres undefined),T/C,"dose: 75.0 mg/kg/injection, schedule: Q01DX001 (ip), vehicle: acetone",100 % of control
same,T/C,"dose: 150.0 mg/kg/injection, schedule: Q01DX001 (ip), vehicle: acetone",107 % of control
same,T/C,"dose: 300.0 mg/kg/injection, schedule: Q01DX001 (ip), vehicle: acetone",92 % of control
CC(=O)OC1CCC2(C)C3=C(CCC2C1(C)C)C1(C)CCC(C(C)CCC2NC2(C)C)C1(C)CC3 (centres undefined),T/C,"dose: 100.0 mg/kg/injection, schedule: Q04DX003 (sc), vehicle: steriod suspending solution",105 % of control
same,T/C,"dose: 200.0 mg/kg/injection, schedule: Q04DX003 (sc), vehicle: steriod suspending solution",101 % of control
same,T/C,"dose: 400.0 mg/kg/injection, schedule: Q04DX003 (sc), vehicle: steriod suspending solution",105 % of control
CC1(c2ccc3ccccc3c2)OCC2(CCCCC2)CO1,T/C,"dose: 50.0 mg/kg/injection, schedule: Q04DX002 (ip), vehicle: Klucel (hydroxypropylcellulose) (HPC)",93 % of control
same,T/C,[19],100 % of control
same,T/C,[20],100 % of control
same,T/C,[21],96 % of control and 97 % of control
COc1ccc2c(c1OC)CCN1C3=C(CC4(CC3)OCCO4)C(=O)CC21 (centres undefined),T/C,[12],97 % of control
same,T/C,[13],88 % of control
same,T/C,[14],101 % of control
COc1cc2ccc(CCN)cc2cc1OC,T/C,[16],101 % of control
same,T/C,[17],101 % of control
same,T/C,[18],105 % of control
OCCCOc1ccc(Cl)cc1Cl,T/C,"dose: 100.0 mg/kg/injection, schedule: Q04DX002 (sc), vehicle: olive oil, sesame oil, peanut oil",100 % of control
same,T/C,"dose: 200.0 mg/kg/injection, schedule: Q04DX002 (sc), vehicle: olive oil, sesame oil, peanut oil",95 % of control
same,T/C,"dose: 400.0 mg/kg/injection, schedule: Q04DX002 (sc), vehicle: olive oil, sesame oil, peanut oil",110 % of control
CO/N=C/c1ccc([N+](=O)[O-])cc1,T/C,"dose: 100.0 mg/kg/injection, schedule: Q01DX001 (ip), vehicle: Klucel (hydroxypropylcellulose) (HPC)",96 % of control
same,T/C,"dose: 200.0 mg/kg/injection, schedule: Q01DX001 (ip), vehicle: Klucel (hydroxypropylcellulose) (HPC)",95 % of control
same,T/C,"dose: 400.0 mg/kg/injection, schedule: Q01DX001 (ip), vehicle: Klucel (hydroxypropylcellulose) (HPC)",98 % of control
C=C(N1CCCCC1)N1CCCCC1,T/C,"dose: 100.0 mg/kg/injection, schedule: Q04DX002 (ip), vehicle: saline with Tween-80",100 % of control
same,T/C,"dose: 200.0 mg/kg/injection, schedule: Q04DX002 (ip), vehicle: saline with Tween-80",96 % of control
same,T/C,"dose: 400.0 mg/kg/injection, schedule: Q04DX002 (ip), vehicle: saline with Tween-80",116 % of control
CC(Cl)CN(Cc1cc(O)c(CN(CC(C)Cl)CC(C)Cl)cc1O)CC(C)Cl (centres undefined),T/C,"dose: 50.0 mg/kg/injection, schedule: Q01DX001 (ip), vehicle: carboxymethylcellulose (CMC)",105 % of control
same,T/C,[1],94 % of control
same,T/C,[2],95 % of control
same,T/C,[3],90 % of control
CCOC(=O)c1occ(Cl)c1Cl,T/C,[10],107 % of control
same,T/C,[11],113 % of control
CC1CCC(C)C([N+](C)(C)C)C1 (centres undefined),T/C,"dose: 12.5 mg/kg/injection, schedule: Q04DX003 (ip), vehicle: saline",98 % of control
same,T/C,"dose: 25.0 mg/kg/injection, schedule: Q04DX003 (ip), vehicle: saline",98 % of control
same,T/C,"dose: 50.0 mg/kg/injection, schedule: Q04DX003 (ip), vehicle: saline",95 % of control
same,T/C,"dose: 75.0 mg/kg/injection, schedule: Q04DX003 (ip), vehicle: saline",93 % of control
Cc1cc([N+](=O)[O-])ccc1NC(=O)OCc1ccccc1,T/C,[19],99 % of control
same,T/C,[20],101 % of control
same,T/C,[21],89 % of control
CCOC(=O)C[N+]1(C)C2CCC1CC(O)C2 (centres undefined),T/C,[10],94 % of control
same,T/C,[11],90 % of control
same,T/C,[15],94 % of control
CC(C)=CCC(=O)NC(=O)NS(=O)(=O)c1ccc(Cl)cc1,T/C,[5],100 % of control
same,T/C,[7],177 % of control
same,T/C,[8],94 % of control
C/C(CC(C)(C)c1ccccc1)=N/NC(N)=O,T/C,[4],104 % of control
same,T/C,[6],98 % of control
